Experimental data reported in patent publication US20190216751A1, “Compositions and Methods for the Treatment and Prevention of Cancer” (California State University Northridge, priority 2017, published 2019).

What was measured:
BT549 cells = assay: Cell proliferation assay (CellTiter 96 AQueous One, MTS); type: cell-based, human; conditions: TubA 1 μM pretreatment, GC7 0.1 nM to 1 mM
Description: The next research questions revolved around asking how TGFβ is regulating eIF5A and what other proteins might be involved to completely block TGFβ-induced EMT. This led to histone deacetylase enzyme 6 (HDAC6). HDAC6 has been previously reported to be responsible for the deacetylation of eIF5A in the nucleus in order to make it readily available for hypusination and later transport out in the cytoplasm for functioning as a translation factor. To determine if it were possible to further increase the efficacy or potency of GC7, the inventors co-treated with Tubastatin A (an HDAC6 inhibitor) in 4T1 and 67NR cells as well as MDA-MB-468 cells which initially were not very sensitive to GC7. Triple negative human breast cancer cell line, BT547, was also used to see if another cell line representative of this breast cancer subtype was sensitive towards DHPS and HDAC6 inhibition. (FIGS. 5A and 5B). […] MDA-MB-468 and BT549 cells remained to be insensitive to TubA with or without GC7 pretreatment (FIG. 5A). […]
The CellTiter 96® AQueous One Solution (Promega) was used to perform cell proliferation experiments. […] Absorbance readings were measured at 490 nm wavelength at 1.5, 2 and 3 hours (absorbance is directly proportional to the number of living cells).

hypusinated eIF5A = assay: Western blot hypusine versus total eIF5A; type: cell-based, mouse, human
Method: The inventors sought to determine if the decrease in cell viability is due to the inhibition of post translational modification of eIF5A. To test this, all cell lines were treated with GC7 at 100 μM for 48 hours—which were the time point and concentration at which a decrease in cell viability was seen (FIG. 2B). The inventors then collected, performed a western blot and immunoblotted for hypusine, total eIF5A and β-actin as a loading control (FIG. 3A). […] To test if this effect is dose-dependent, 4T1, 67NR and MCF10CA1a cells were treated with various concentrations of GC7 ranging from 0.1 μM to 100 μM. Protein lysates were then collected after 48 hours of treatment and performed a western blot. […] To validate this in breast cancer cells, the inventors immunoblotted for PEAK1 as well as E-cadherin, hypusine, total eIF5A and β-actin as a loading control (FIG. 3B). […] The inventors next looked at cell viability at lower concentrations of GC7, such as 1 μM and 10 μM, where a decrease in hypusinated eIF5A is still achieved but the decrease in cell viability is not as great in lower concentrations that do still target hypusinated eIF5A (FIG. 3C).
Cell lines were plated in a 6 well plate at 1e5 cells/mL and left to attach overnight. […] Protein concentrations were determined using Bradford Assay. […] Band intensity graphs were quantified using Fiji software after image thresholding.

E-cadherin in 4T1 cells = assay: Western blot E-cadherin, TGFβ-induced EMT; type: cell-based, mouse; conditions: 10 μM each drug, re-treated with TGFβ 2.5 ng/mL at 48 hours, 96-hour time point
Method: Next, the inventors investigated whether blockade of HDAC6 and DHPS activity could further suppress TGFβ-induced EMT either independently or simultaneously. To test this, 4T1 cells were treated with either TubA at 10 μM, GC7 at 10 μM or both for 48 hours. At this time point, protein lysates were collected as well as phase-contrast images (FIGS. 6B and 6C). At that same time point, the media was changed and the cells were re-treated with the same drugs at the same concentrations; however, this time with the addition of TGFβ at 2.5 ng/mL. The inventors collected protein lysates and phase-contrast images just one day post TGFβ treatment, calling this the 72-hour time point (FIGS. 6B and 6C). In addition, the inventors collected mRNA, protein lysates, phase-contrast and immunofluorescences images two days post TGFβ treatment, calling this the 96-hour time point (FIGS. 6A, 6B, 6C and 6D).
Cell lines were plated in a 6 well plate at 1e5 cells/mL and left to attach overnight. Cells were then treated if necessary then lysed using Radioimmunoprecipitation assay (RIPA) buffer containing phosphatase and protease inhibitors and left to rotate at 4° C. for at least 3 hours. Lysates were then cleared by centrifugation at 12,000 RPM for 10 minutes at 4° C. Protein concentrations were determined using Bradford Assay. […] Band intensity graphs were quantified using Fiji software after image thresholding.

## N=C(N)NCCCCCCCN.O=S(=O)(O)O [GC7, N1-Guanyl-1,7-diaminoheptane]
BT549 cells
  change of potency of GC7 by TubA pretreatment (cell viability): this effect was not seen in the three other cell lines
Hypusinated eIF5A; 100 μM GC7, 48 hours, 4T1, 67NR, MCF10AT1k, MCF10CA1h and MCF10CA1a
  decrease in hypusinated eIF5A protein activity: largest decrease in hypusinated eIF5A protein activity
Hypusinated eIF5A; GC7 0.1 μM to 100 μM, 48 hours, 4T1, 67NR and MCF10CA1a
  hypusinated eIF5A levels (band intensity ratio to total eIF5A): consistently decreased
E-cadherin in 4T1 cells
  TGFβ-induced EMT, E-cadherin protein expression: dramatically increased
